In PubChem BioAssay AID1224910:

Target: Serine/threonine-protein kinase PAK 2 (Homo sapiens) (UniProt Q13177)
Assay: PubChem AID 1224910
Conditions: Caliper in vitro kinase assay, dephosphorylated PAK2

Chain of Serine/threonine-protein kinase PAK 2 (Homo sapiens) (Q13177 whole entry, looked up): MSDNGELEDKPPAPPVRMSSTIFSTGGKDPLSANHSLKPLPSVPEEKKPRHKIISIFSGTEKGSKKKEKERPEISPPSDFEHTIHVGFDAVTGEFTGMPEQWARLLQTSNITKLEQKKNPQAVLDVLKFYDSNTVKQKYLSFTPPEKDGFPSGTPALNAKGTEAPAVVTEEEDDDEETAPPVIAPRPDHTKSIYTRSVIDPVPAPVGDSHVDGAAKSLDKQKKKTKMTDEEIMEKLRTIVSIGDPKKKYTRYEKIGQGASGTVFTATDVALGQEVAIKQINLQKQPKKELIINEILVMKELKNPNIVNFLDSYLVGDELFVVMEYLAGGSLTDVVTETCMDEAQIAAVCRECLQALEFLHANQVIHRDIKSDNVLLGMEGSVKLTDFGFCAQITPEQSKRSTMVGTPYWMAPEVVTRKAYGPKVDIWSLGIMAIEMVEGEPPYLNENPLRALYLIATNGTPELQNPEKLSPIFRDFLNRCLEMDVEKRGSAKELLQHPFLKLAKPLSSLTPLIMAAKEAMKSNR

- IC50: 270 nM
Structure (SMILES): CC(C)NC(=O)N1CC[C@H](N=C2Nc3cc(F)ccc3N(CC(F)F)c3ccc(Cl)cc32)C1
